The text below walks through data of publication PMC8041276 (ACS Chemical Neuroscience, 2021).

Each structure is given as a SMILES string. Where two headings read alike, the source gives them in different places.

Test [1] deals with T1, 5-HT6R (Homo sapiens, UniProt P50406). Put plainly: [3H]-LSD radioligand binding assay, HEK293 cells stably expressing human 5-HT6R. Set-up: expressed in transfected cells. The conditions noted are these: mean of three independent experiments. On the procedure:
Final compounds were evaluated in the [^3H]-LSD binding assay using HEK293 cells with stable expression of human 5-HT6R. […] Because the fluorine atom might affect the affinity at target protein as well as physicochemical and pharmacokinetic properties of compound,[22] fluorine substitution at the 2-phenyl ring was applied. […] The analysis of the binding mode of 18 and 28 (Figure 2A) confirmed that the 2-phenyl moiety is placed in the hydrophobic cavity between transmembrane domains (TMs) 4–6.
(§1) All experiments were carried out according to the previously published procedures.[41]−[43] HEK293 cells stably expressing human 5-HT1A, 5-HT6, 5-HT7b, and D2L receptors (prepared with the use of Lipofectamine 2000) or CHO-K1 cells with plasmid containing the sequence coding for the human serotonin 5-HT2A receptor (PerkinElmer) were maintained at 37 °C in a humidified atmosphere containing 5% CO2 and grown in Dulbecco’s modified Eagle’s medium containing 10% dialyzed fetal bovine serum and 500 μg/mL G418 sulfate. For membrane preparation, cells were cultured in 150 cm^2 flasks, grown to 90% confluence, washed twice with prewarmed to 37 °C phosphate buffered saline (PBS), and centrifuged (200g) in PBS containing 0.1 mM EDTA and 1 mM dithiothreitol. Prior to membrane preparation, pellets were stored at −80 °C. Cell pellets were thawed and homogenized in 10 volumes of assay buffer using an Ultra Turrax tissue homogenizer and centrifuged twice at 35 000g for 15 min at 4 °C, with incubation for 15 min at 37 °C between the centrifugations. The composition of the assay buffers was experimentally selected to achieve the maximum signal window (more details in Supporting Information). All assays were carried out in a total volume of 200 μL in 96-well plates for 1 h at 37 °C except 5-HT1AR and 5-HT2AR which were incubated at room temperature and 27 °C, respectively. The process of equilibration was terminated by rapid filtration through Unifilter plates with a 96-well cell harvester, and radioactivity retained on the filters was quantified on a Microbeta plate reader (PerkinElmer, USA). For displacement studies the assay samples contained the following as radioligands (PerkinElmer, USA): 2.5 nM [^3H]-8-OH-DPAT (135.2 Ci/mmol) for 5-HT1AR; 1 nM [^3H]-ketanserin (53.4 Ci/mmol) for 5-HT2AR; 2 nM [^3H]-LSD (83.6 Ci/mmol) for 5-HT6R; 0.8 nM [^3H]-5-CT (39.2 Ci/mmol) for 5-HT7R or 2.5 nM [^3H]-raclopride (76.0 Ci/mmol) for D2LR. Nonspecific binding was defined in the presence of 10 μM 5-HT in 5-HT1AR and 5-HT7R binding experiments, whereas 20 μM mianserin, 10 μM methiothepine, and 10 μM haloperidol were used in 5-HT2AR, 5-HT6R, and D2LR assays, respectively. Each compound was tested in triplicate at seven concentrations (10^–10–10^–4 M). The inhibition constants (Ki) were calculated from the Cheng–Prusoff equation.[44]

In test [2] the target is T1, 5-HT6R. Put plainly: Basal cAMP production (constitutive Gs signaling) in NG108-15 cells transiently expressing 5-HT6R, CAMYEL BRET. The test is classed as cell-based. On the set-up: expressed in transfected cells; host or cells: NG108-15 (transient, Lipofectamine 2000, cotransfected with the CAMYEL sensor). The conditions noted are these: for functional profile: 5-HT6R-dependent Gs signaling, NG108-15 cells; for IC50: decrease of basal cAMP, NG108-15 cells transiently expressing 5-HT6R. On the procedure:
NG108-15 cells were grown in Dulbecco’s modified Eagle’s medium (DMEM) supplemented with 10% dialyzed fetal calf serum, 2% hypoxanthine/aminopterin/thymidine (Life Technologies), and antibiotics. cAMP measurement was performed in cells transiently expressing 5-HT6R using the bioluminescence resonance energy transfer (BRET) sensor for cAMP, CAMYEL (cAMP sensor using YFP-Epac-RLuc).[45] NG108-15 cells were cotransfected in suspension with 5-HT6R (0.5 μg DNA/million cells) and CAMYEL constructs (1 μg DNA/million cells), using Lipofectamine 2000 according to the manufacturer’s protocol, and plated in white 96-well plates (Greiner) at a density of 50 000 cells per well. […] Coelanterazine H (Molecular Probes) was added at a final concentration of 5 μM and left at room temperature for 5 min. BRET was measured using a Mithras LB 940 plate reader (Berthold Technologies).
(In general: cAMP levels reflect the balance of adenylyl cyclase and phosphodiesterase activity.)

The next test concerns the target T2, 5-HT7R (Homo sapiens, UniProt P34969).
T2 construct: expressed in transfected cells
Put plainly: [3H]-5-CT radioligand binding assay, HEK293 cells. The following applies: mean of three experiments. The protocol: as §1

Another test concerns the target T3, D2R (Homo sapiens, UniProt P14416).
T3 construct: expressed in transfected cells
Put plainly: [3H]-raclopride radioligand binding assay, HEK293 cells. The following applies: mean of three experiments. On the procedure: as §1

A further test deals with T4, 5-HT2AR (Homo sapiens, UniProt P28223).
T4 construct: host or cells: CHO-K1
Put plainly: [3H]-ketanserin radioligand binding assay, CHO-K1 cells. The conditions noted are these: mean of three experiments.

Test [3] addresses T1, 5-HT6R. Put plainly: Inhibition of 5-CT-stimulated cAMP production in 1321N1 cells. Set-up: expressed in transfected cells. The following applies: antagonism of 5-CT (1000 nM)-stimulated cAMP. The test is classed as cell-based. On the procedure: The effect of compounds 18, 22, 27, and 28 on adenylate cyclase was examined in 1321N1 cells expressing the 5-HT6R.
The properties of compounds 18, 22, 27, 28 to inhibit cAMP production induced by 5-CT (1000 nM), a 5-HT6R agonist, were evaluated. Compounds were tested in triplicate at eight concentrations (10^–11–10^–4 M). The level of cAMP was measured using frozen recombinant 1321N1 cells expressing the human serotonin 5-HT6R (PerkinElmer). Total cAMP was measured using the LANCE cAMP detection kit (PerkinElmer), according to the manufacturer’s recommendations. For quantification of cAMP levels, 2000 cells/well (5 μL) were incubated with a mixture of compounds (5 μL) for 30 min at room temperature in 384-well white opaque microtiter plate. After incubation, the reaction was stopped and cells were lysed by the addition of 10 μL of working solution (5 μL of Eu-cAMP and 5 μL of ULight-anti-cAMP) for 1 h at room temperature. Time-resolved fluorescence resonance energy transfer (TR-FRET) was detected by an Infinite M1000 Pro (Tecan) using instrument settings from LANCE cAMP detection kit manual. Kb values were calculated from Cheng–Prusoff equation specific for the analysis of functional inhibition curves: Kb = IC50/(1 + A/EC50) where A represents agonist concentration, IC50 the concentration of antagonist producing a 50% reduction in the response to agonist, and EC50 the agonist concentration which causes a half of the maximal response.[44]

For the next test, the target named is T5, 5-HT1AR (Homo sapiens, UniProt P08908).
T5 construct: expressed in transfected cells
T5 sequence (P08908 1-422): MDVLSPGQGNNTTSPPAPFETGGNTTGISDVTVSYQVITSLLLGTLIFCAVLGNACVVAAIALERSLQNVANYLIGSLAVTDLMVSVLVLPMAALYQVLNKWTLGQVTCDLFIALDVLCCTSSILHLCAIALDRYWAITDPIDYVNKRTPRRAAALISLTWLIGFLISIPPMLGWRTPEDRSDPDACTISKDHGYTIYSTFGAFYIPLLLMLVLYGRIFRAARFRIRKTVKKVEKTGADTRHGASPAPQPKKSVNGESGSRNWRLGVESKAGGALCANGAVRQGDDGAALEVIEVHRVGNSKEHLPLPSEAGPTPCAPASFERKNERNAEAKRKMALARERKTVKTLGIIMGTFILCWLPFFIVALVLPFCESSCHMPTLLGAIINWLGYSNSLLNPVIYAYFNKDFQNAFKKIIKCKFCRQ
Put plainly: [3H]-8-OH-DPAT radioligand binding assay, HEK293 cells. The following applies: mean of three experiments. On the procedure:
as §1

Test [4] concerns the target T1, 5-HT6R. On the set-up: expressed in transfected cells. The conditions noted are these: cited from earlier work.

T1 sequence (P50406 whole entry, the tested form may be a part): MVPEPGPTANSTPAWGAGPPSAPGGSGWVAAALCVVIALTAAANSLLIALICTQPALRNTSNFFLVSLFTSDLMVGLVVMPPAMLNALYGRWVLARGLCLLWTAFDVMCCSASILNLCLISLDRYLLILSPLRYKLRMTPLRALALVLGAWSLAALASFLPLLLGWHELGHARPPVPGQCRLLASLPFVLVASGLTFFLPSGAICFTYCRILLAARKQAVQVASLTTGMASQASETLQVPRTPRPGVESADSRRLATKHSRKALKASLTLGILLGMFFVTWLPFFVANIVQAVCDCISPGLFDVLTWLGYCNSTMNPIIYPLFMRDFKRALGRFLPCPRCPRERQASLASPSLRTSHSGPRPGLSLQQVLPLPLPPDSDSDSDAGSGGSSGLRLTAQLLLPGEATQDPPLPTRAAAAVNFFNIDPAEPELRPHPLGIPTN
T4 sequence (P28223 whole entry): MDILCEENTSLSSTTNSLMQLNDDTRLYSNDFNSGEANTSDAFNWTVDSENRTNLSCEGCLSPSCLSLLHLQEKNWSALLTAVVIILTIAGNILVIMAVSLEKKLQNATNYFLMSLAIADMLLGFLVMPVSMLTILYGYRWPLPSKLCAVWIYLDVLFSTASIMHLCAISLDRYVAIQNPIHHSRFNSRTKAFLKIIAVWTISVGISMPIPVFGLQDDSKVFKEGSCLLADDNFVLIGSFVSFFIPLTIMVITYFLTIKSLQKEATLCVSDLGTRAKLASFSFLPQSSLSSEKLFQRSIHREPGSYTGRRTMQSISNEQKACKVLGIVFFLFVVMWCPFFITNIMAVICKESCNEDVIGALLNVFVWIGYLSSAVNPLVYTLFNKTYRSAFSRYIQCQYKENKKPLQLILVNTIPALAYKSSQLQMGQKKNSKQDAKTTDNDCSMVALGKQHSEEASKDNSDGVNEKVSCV
T2 sequence (P34969 1-432): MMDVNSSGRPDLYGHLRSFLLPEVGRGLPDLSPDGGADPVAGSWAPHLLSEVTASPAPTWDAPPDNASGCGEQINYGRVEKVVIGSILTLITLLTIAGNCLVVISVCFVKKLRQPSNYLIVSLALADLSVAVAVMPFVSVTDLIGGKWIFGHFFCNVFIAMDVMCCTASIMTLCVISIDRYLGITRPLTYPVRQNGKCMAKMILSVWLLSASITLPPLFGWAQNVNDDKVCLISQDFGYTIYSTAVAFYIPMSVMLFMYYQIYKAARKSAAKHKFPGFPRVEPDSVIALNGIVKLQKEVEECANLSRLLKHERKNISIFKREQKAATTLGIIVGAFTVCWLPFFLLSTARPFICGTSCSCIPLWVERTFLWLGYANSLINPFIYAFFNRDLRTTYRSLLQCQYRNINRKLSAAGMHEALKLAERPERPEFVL
T3 sequence (P14416 whole entry): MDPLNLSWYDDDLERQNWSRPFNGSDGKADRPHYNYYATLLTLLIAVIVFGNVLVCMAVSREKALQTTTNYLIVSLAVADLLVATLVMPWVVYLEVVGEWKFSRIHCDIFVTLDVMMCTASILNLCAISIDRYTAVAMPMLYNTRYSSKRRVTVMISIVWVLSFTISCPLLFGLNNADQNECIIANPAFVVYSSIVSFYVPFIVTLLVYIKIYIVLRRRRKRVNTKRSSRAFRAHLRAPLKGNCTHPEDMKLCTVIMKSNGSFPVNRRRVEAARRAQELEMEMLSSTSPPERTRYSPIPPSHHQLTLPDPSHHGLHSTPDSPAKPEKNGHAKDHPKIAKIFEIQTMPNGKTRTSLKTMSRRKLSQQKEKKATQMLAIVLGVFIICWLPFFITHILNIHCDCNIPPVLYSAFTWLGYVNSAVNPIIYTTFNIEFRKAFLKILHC

With `O=C(N[C@@H]1CCNC1)c1ccn(S(=O)(=O)c2ccc(F)cc2)c1-c1cccc(F)c1` [Compound 23], the affinity at 5-HT6R [1] corresponds to a Ki of 853 nM.

For `O=C(N[C@H]1CCNC1)c1ccn(S(=O)(=O)c2cccc3ccccc23)c1-c1ccc(F)cc1` [Compound 31], the affinity at 5-HT6R [1], expressed as Ki, was 391 nM.

`O=C(N[C@@H]1CCNC1)c1ccn(S(=O)(=O)c2cccc(OC(F)(F)F)c2)c1-c1ccccc1` [Compound 15]: on 5-HT6R [1], the inhibitory constant (Ki) (commonly the dissociation constant of the complex between target and ligand, obtained from inhibition or displacement) was found to be 52 nM.

For `O=C(N[C@H]1CCNC1)c1ccn(S(=O)(=O)c2cccc(Cl)c2)c1-c1cccc(F)c1` [Compound 22, (S)-2-(3-Fluorophenyl)-1-[(3-chlorophenyl)sulfonyl)-N-(pyrrolidin-3-yl)-1H-pyrrole-3-carboxamide], at 5-HT6R [2], the functional profile result is listed as “inverse agonist”. Also, the concentration for half-maximal inhibition (IC50) (commonly the midpoint of a concentration-inhibition curve) against 5-HT6R [2] came out at 306 nM. Moreover, the inhibition constant Ki on 5-HT7R came to 7060 nM; at D2R it was 6660 nM; at 5-HT2AR, 15200 nM; at 5-HT1AR it was 65700 nM; at 5-HT6R [1] it was 28 nM. On 5-HT6R [3], the Kb (usually the affinity of an antagonist, worked out from how it opposes an agonist) stood at 6 nM.

The compound `Cc1cccc(S(=O)(=O)n2ccc(C(=O)N[C@@H]3CCNC3)c2-c2ccccc2)c1` [Compound 11] returned an inhibitory constant (Ki) on 5-HT6R [1] of 96 nM.

Regarding `O=C(N[C@@H]1CCNC1)c1ccn(S(=O)(=O)c2cccc(Cl)c2)c1-c1cccc(F)c1` [Compound 21], the inhibitory constant (Ki) on 5-HT6R [1] worked out at 98 nM.

`Cc1ccccc1S(=O)(=O)n1ccc(C(=O)N[C@@H]2CCNC2)c1-c1ccccc1` [Compound 9]: the affinity at 5-HT6R [1], expressed as Ki, was 324 nM.

Regarding `O=C(N[C@@H]1CCNC1)c1ccn(S(=O)(=O)c2ccccc2Cl)c1-c1ccccc1` [Compound 10], on 5-HT6R [1], the inhibitory constant (Ki) was found to be 179 nM.

In the case of `O=C(N[C@@H]1CCNC1)c1ccn(S(=O)(=O)c2ccccc2)c1-c1ccccc1` [Compound 7], the affinity on 5-HT6R [1], expressed as Ki, was 208 nM.

With `O=C(N[C@@H]1CCNC1)c1ccn(S(=O)(=O)c2cccc(F)c2)c1-c1ccccc1` [Compound 12], on 5-HT6R [1], the inhibitory constant (Ki) came to 88 nM.

In the case of `O=C(N[C@@H]1CCNC1)c1ccn(S(=O)(=O)c2cccc(C(F)(F)F)c2)c1-c1ccccc1` [Compound 13], the affinity on 5-HT6R [1] corresponds to a Ki of 159 nM.

`O=C(N[C@H]1CCNC1)c1ccn(S(=O)(=O)c2cccc3cccnc23)c1-c1ccc(F)cc1` [Compound 32] returned an inhibitory constant (Ki) at 5-HT6R [1] of 1210 nM.

As for `Cn1cc(S(=O)(=O)n2ccc(C(=O)N[C@H]3CCNC3)c2-c2ccccc2)cn1` [Compound 20], the Ki on 5-HT6R [1] came out at 1460 nM.

`O=C(N[C@@H]1CCNC1)c1ccn(S(=O)(=O)c2cccc(F)c2)c1-c1ccc(F)cc1` [Compound 26] gave a Ki on 5-HT6R [1] of 56 nM.

The compound `O=C(N[C@H]1CCNC1)c1ccn(S(=O)(=O)c2cccc(OC(F)(F)F)c2)c1-c1ccccc1` [Compound 16] registered a Ki at 5-HT6R [1] of 31 nM.

In the case of `O=C(N[C@H]1CCNC1)c1ccn(S(=O)(=O)c2ccccc2)c1-c1ccccc1` [Compound 8], affinity on 5-HT6R [1] was put at a Ki of 106 nM.

On to `O=S(=O)(c1ccccc1)n1ccc2c(NC3CCNC3)nc3ccccc3c21` (stereo not drawn) [I], for which the Ki on 5-HT6R [4] was 10 nM.

For `COc1cccc(S(=O)(=O)n2ccc(C(=O)N[C@@H]3CCNC3)c2-c2ccc(F)cc2)c1` [Compound 25], the Ki at 5-HT6R [1] turned out to be 350 nM.

With `O=C(N[C@@H]1CCNC1)c1ccn(S(=O)(=O)c2ccccc2)c1-c1ccc(F)cc1` [Compound 24], affinity on 5-HT6R [1] was put at a Ki of 102 nM.

With `O=C(N[C@@H]1CCNC1)c1ccn(S(=O)(=O)c2cccc(Cl)c2)c1-c1ccccc1` [Compound 17], the inhibition constant Ki at 5-HT6R [1] came out at 35 nM.

On 5-HT6R [1], `O=C(N[C@@H]1CCNC1)c1ccn(S(=O)(=O)c2ccc(F)cc2)c1-c1ccc(F)cc1` [Compound 29] returned a Ki of 2580 nM.

As to `O=C(N[C@H]1CCNC1)c1ccn(S(=O)(=O)c2cccc(Cl)c2)c1-c1ccccc1` [Compound 18, (S)-2-Phenyl-1-[(3-chlorophenyl)sulfonyl]-N-(pyrrolidin-3-yl)-1H-pyrrole-3-carboxamide], the functional profile result at 5-HT6R [2] was “inverse agonist”. Further, 170 nM corresponded to half-maximal inhibition on 5-HT6R [2] (IC50). For the same compound, the Ki is 65500 nM on 5-HT7R; 6840 nM on D2R; 14600 nM on 5-HT2AR; 1370 nM on 5-HT1AR; 25 nM at 5-HT6R [1]. The antagonist dissociation constant (Kb) at 5-HT6R [3] came out at 35 nM.

The compound `O=C(N[C@H]1CCNC1)c1ccn(S(=O)(=O)c2ccc(F)cc2)c1-c1ccc(F)cc1` [Compound 30] showed a Ki at 5-HT6R [1] of 638 nM.

In the case of `O=C(N[C@H]1CCNC1)c1ccn(S(=O)(=O)c2cccc(C(F)(F)F)c2)c1-c1ccccc1` [Compound 14], the affinity at 5-HT6R [1], expressed as Ki, was 38 nM.

Consider `O=C(N[C@H]1CCNC1)c1ccn(S(=O)(=O)c2cccs2)c1-c1ccccc1` [Compound 19], for which, on 5-HT6R [1], the Ki stood at 162 nM.
